# Experimental data as given in PMC5750218, “Protein-inspired antibiotics active against vancomycin- and daptomycin-resistant bacteria” (Nature Communications, 2018).
# Positions of bridges follow the written chain, without caps; N, C: chain ends. Residues, ends and D or L forms follow the SMILES beside them. Chains are numbered I, II in the order given. *: point of attachment. Myristoyl = CCCCCCCCCCCCCC(=O)*
# Experiments:
# Assay in all cases: microbe, parasite or virus in culture
# [1] = tested on: Methicillin-resistant S. aureus ATCC 43300; conditions: ATCC 43300, 24 h
# Experimental: (§1) Antimicrobial activity of compounds was tested against a number of bacterial strains by broth microdilution (BMD) assay with MIC determination, including S. aureus (MSSA ATCC® 29213™, MRSA ATCC® 43300™, VISA NARSA NRS1, VISA NARSA NRS4), Streptococcus pneumoniae (MDR ATCC® 700677™) and Enterococcus faecium (MDR VanA ATCC® 51559™). ATCC strains were sourced from the American Type Culture Collection and NRS strains from NARSA (Network on Antimicrobial Resistance in S. aureus) via BEI Resources (www.beiresources.org). All compounds were prepared to 160 µg mL^−1 solution in water from a stock solution of 1 mM concentration.
# […] […] Standards ranged from 64 to 0.03 µg mL^−1 and compounds from 8 to 0.003 µg mL^−1 with final assay volumes of 100 µL per well. Gram-positive bacteria were cultured in Mueller Hinton broth (MHB) (Bactolaboratories, Cat. no. 211443) at 37 °C overnight. A sample of each culture was then diluted 40-fold in fresh MHB and incubated at 37 °C for 2–3 h. […] All the plates were covered and incubated at 37 °C for 24 h. MICs were the lowest concentration showing no visible growth.
# [2] = tested on: Vancomycin-resistant (VanA) Enterococcus faecium ATCC 51559; conditions: ATCC 51559
# Experimental: as §1
# (§2) The compounds, along with standard antibiotics were serially diluted twofold across the wells of 96-well non-binding surface (NBS) polystyrene plates (Corning 3641). […] Standards ranged from 64 to 0.03 µg mL^−1 and compounds from 8 to 0.003 µg mL^−1 with final assay volumes of 100 µL per well. Gram-positive bacteria were cultured in Mueller Hinton broth (MHB) (Bactolaboratories, Cat. no. 211443) at 37 °C overnight. A sample of each culture was then diluted 40-fold in fresh MHB and incubated at 37 °C for 2–3 h. […] All the plates were covered and incubated at 37 °C for 24 h. MICs were the lowest concentration showing no visible growth.
# [3] = tested on: Multi-drug-resistant S. pneumoniae ATCC 700677; conditions: ATCC 700677
# Experimental: as §1, §2
# [4] = tested on: Vancomycin-intermediate S. aureus NRS1; conditions: Vancomycin-intermediate NRS1
# Experimental: as §1, §2
SMILES,MIC MRSA [1] [µg/mL],MIC VRE [2] [µg/mL],MIC MDR S.P. [3] [µg/mL],MIC VISA [4] [µg/mL]
CCCCCCCCCCCCCC(=O)NCC(=O)N[C@@H](CO)C(=O)N[C@@H](CO)C(=O)N[C@@H](CCCCN)C(=O)N[C@@H](CO)C(=O)N1CCC[C@H]1C(=O)N[C@@H](CO)C(=O)N[C@@H](CCCCN)C(=O)N[C@@H](CCCCN)C(=O)N[C@@H](CCCCN)C(=O)N[C@@H](CCCCN)C(=O)N[C@@H](CCCCN)C(=O)N[C@@H](CCCCN)C(=O)N1CCC[C@H]1C(=O)NCC(=O)N[C@@H](CC(=O)O)C(=O)N[C@@H](CS)C(N)=O [Compound 8a] (Myristoyl-GSSKSPSKKKKKKPGDC-NH2),>8,>8,,
CCCCCCCCCCCCCC(=O)NCC(=O)N[C@@H](CO)C(=O)N[C@@H](CO)C(=O)N[C@@H](CCCCN)C(=O)N[C@@H](CO)C(=O)N1CCC[C@H]1C(=O)N[C@@H](CO)C(=O)N[C@@H](CCCCN)C(=O)N[C@@H](CCCCN)C(=O)N[C@@H](CCCCN)C(=O)N1CCC[C@H]1C(=O)N[C@@H](CS)C(N)=O [Compound 12a] (Myristoyl-GSSKSPSKKKPC-NH2),>8,>8,,
"CCCCCCCCCCCCCC(=O)NCC(=O)N[C@@H](CO)C(=O)N[C@@H](CCCCN)C(=O)N[C@@H](CCCCN)C(=O)N[C@@H](CCCCN)C(=O)N[C@@H](CS)C(N)=O [Compound 13a, Myristoyl-GSKKKC-NH 2] (Myristoyl-GSKKKC-NH2)",>8,>8,,
"CCCCCCCCCCCCCC(=O)NCC(=O)N[C@@H](CO)C(=O)N[C@@H](CCCCN)C(=O)N[C@@H](CCCCN)C(=O)N[C@@H](CCCCN)C(=O)N[C@@H](CS)C(=O)O [Compound 14a, Myristoyl-GSKKKC-OH] (Myristoyl-GSKKKC-OH)",>8,>8,,
"CCCCCCCCCCCCCC(=O)N[C@@H](CCCCN)C(=O)N[C@@H](CCCCN)C(=O)N[C@@H](CCCCN)C(=O)N[C@@H](CSSC[C@H](NC(=O)[C@H](CCCCN)NC(=O)[C@H](CCCCN)NC(=O)[C@H](CCCCN)NC(=O)CCCCCCCCCCCCC)C(=O)O)C(=O)O [Compound 15a, Myristoyl-KKKC-OH – disulphide dimer] (I: Myristoyl-KKKC-OH / II: Myristoyl-KKKC-OH; disulfide I:4-II:4)",>8,>8,,
CNC(=O)[C@H](CCCCNC(=O)[C@H]1NC(=O)[C@H]2NC(=O)[C@H](NC(=O)[C@@H]3NC(=O)[C@H](CC(N)=O)NC(=O)[C@H](NC(=O)[C@@H](CC(C)C)NC)[C@H](O)c4ccc(c(Cl)c4)Oc4cc3cc(c4O[C@@H]3O[C@H](CO)[C@@H](O)[C@H](O)[C@H]3O[C@H]3C[C@](C)(N)[C@H](O)[C@H](C)O3)Oc3ccc(cc3Cl)[C@H]2O)c2ccc(O)c(c2)-c2c(O)cc(O)cc21)NC(=O)[C@H](CCCCN)NC(=O)[C@@H](CCCCN)NC(=O)[C@H](CCCCNC(=O)c1ccc(Oc2ccccc2)cc1)NC(=O)c1ccc(Oc2ccccc2)cc1 [Compound 26],<0.003,1.5,<0.003,0.19
"CNC(=O)[C@H](CCCCNC(=O)[C@H]1NC(=O)[C@H]2NC(=O)[C@H](NC(=O)[C@@H]3NC(=O)[C@H](CC(N)=O)NC(=O)[C@H](NC(=O)[C@@H](CC(C)C)NC)[C@H](O)c4ccc(c(Cl)c4)Oc4cc3cc(c4O[C@@H]3O[C@H](CO)[C@@H](O)[C@H](O)[C@H]3O[C@H]3C[C@](C)(N)[C@H](O)[C@H](C)O3)Oc3ccc(cc3Cl)[C@H]2O)c2ccc(O)c(c2)-c2c(O)cc(O)cc21)NC(=O)[C@H](CN)NC(=O)[C@H](CN)NC(=O)[C@H](CCCCNC(=O)c1ccc(Oc2ccccc2)cc1)NC(=O)c1ccc(Oc2ccccc2)cc1 [Compound 29, POB2K-Dap-Dap-K(Vancomycin)-NHMe]",0.0045,0.75,0.0085,0.0925
"CNC(=O)[C@H](CCCCNC(=O)[C@H]1NC(=O)[C@H]2NC(=O)[C@H](NC(=O)[C@@H]3NC(=O)[C@H](CC(N)=O)NC(=O)[C@H](NC(=O)[C@@H](CC(C)C)NC)[C@H](O)c4ccc(c(Cl)c4)Oc4cc3cc(c4O[C@@H]3O[C@H](CO)[C@@H](O)[C@H](O)[C@H]3O[C@H]3C[C@](C)(N)[C@H](O)[C@H](C)O3)Oc3ccc(cc3Cl)[C@H]2O)c2ccc(O)c(c2)-c2c(O)cc(O)cc21)NC(=O)[C@H](CCN)NC(=O)[C@H](CCCCN)NC(=O)[C@H](CCCCNC(=O)c1ccc(Oc2ccccc2)cc1)NC(=O)c1ccc(Oc2ccccc2)cc1 [Compound 30, POB2K-K-Dab-K(Vancomycin)-NHMe]",<0.003,0.75,<0.003,0.0925
"CNC(=O)[C@H](CCCCNC(=O)[C@H]1NC(=O)[C@H]2NC(=O)[C@H](NC(=O)[C@@H]3NC(=O)[C@H](CC(N)=O)NC(=O)[C@H](NC(=O)[C@@H](CC(C)C)NC)[C@H](O)c4ccc(c(Cl)c4)Oc4cc3cc(c4O[C@@H]3O[C@H](CO)[C@@H](O)[C@H](O)[C@H]3O[C@H]3C[C@](C)(N)[C@H](O)[C@H](C)O3)Oc3ccc(cc3Cl)[C@H]2O)c2ccc(O)c(c2)-c2c(O)cc(O)cc21)NC(=O)[C@H](CCCCN)NC(=O)[C@H](CCN)NC(=O)[C@H](CCCCNC(=O)c1ccc(Oc2ccccc2)cc1)NC(=O)c1ccc(Oc2ccccc2)cc1 [Compound 31, POB2K-Dab-K-K(Vancomycin)-NHMe]",<0.003,0.375,<0.003,0.0925
"CNC(=O)[C@H](CCCCNC(=O)[C@H]1NC(=O)[C@H]2NC(=O)[C@H](NC(=O)[C@@H]3NC(=O)[C@H](CC(N)=O)NC(=O)[C@H](NC(=O)[C@@H](CC(C)C)NC)[C@H](O)c4ccc(c(Cl)c4)Oc4cc3cc(c4O[C@@H]3O[C@H](CO)[C@@H](O)[C@H](O)[C@H]3O[C@H]3C[C@](C)(N)[C@H](O)[C@H](C)O3)Oc3ccc(cc3Cl)[C@H]2O)c2ccc(O)c(c2)-c2c(O)cc(O)cc21)NC(=O)[C@H](CCCN)NC(=O)[C@H](CCCCN)NC(=O)[C@H](CCCCNC(=O)c1ccc(Oc2ccccc2)cc1)NC(=O)c1ccc(Oc2ccccc2)cc1 [Compound 32, POB2K-K-Orn-K(Vancomycin)-NHMe]",<0.003,1,<0.003,0.0375
"CNC(=O)[C@H](CCCCNC(=O)[C@H]1NC(=O)[C@H]2NC(=O)[C@H](NC(=O)[C@@H]3NC(=O)[C@H](CC(N)=O)NC(=O)[C@H](NC(=O)[C@@H](CC(C)C)NC)[C@H](O)c4ccc(c(Cl)c4)Oc4cc3cc(c4O[C@@H]3O[C@H](CO)[C@@H](O)[C@H](O)[C@H]3O[C@H]3C[C@](C)(N)[C@H](O)[C@H](C)O3)Oc3ccc(cc3Cl)[C@H]2O)c2ccc(O)c(c2)-c2c(O)cc(O)cc21)NC(=O)[C@H](CCCCN)NC(=O)[C@H](CCCN)NC(=O)[C@H](CCCCNC(=O)c1ccc(Oc2ccccc2)cc1)NC(=O)c1ccc(Oc2ccccc2)cc1 [Compound 33, POB2K-Orn-K-K(Vancomycin)-NHMe]",<0.003,1.5,0.007,0.125
"CNC(=O)[C@H](CCCCNC(=O)[C@H]1NC(=O)[C@H]2NC(=O)[C@H](NC(=O)[C@@H]3NC(=O)[C@H](CC(N)=O)NC(=O)[C@H](NC(=O)[C@@H](CC(C)C)NC)[C@H](O)c4ccc(c(Cl)c4)Oc4cc3cc(c4O[C@@H]3O[C@H](CO)[C@@H](O)[C@H](O)[C@H]3O[C@H]3C[C@](C)(N)[C@H](O)[C@H](C)O3)Oc3ccc(cc3Cl)[C@H]2O)c2ccc(O)c(c2)-c2c(O)cc(O)cc21)NC(=O)[C@H](CCCN)NC(=O)[C@H](CCCN)NC(=O)[C@H](CCCCNC(=O)c1ccc(Oc2ccccc2)cc1)NC(=O)c1ccc(Oc2ccccc2)cc1 [Compound 34, POB2K-Orn-Orn-K(Vancomycin)-NHMe]",<0.003,0.5,<0.003,0.0185
"CNC(=O)[C@H](CCCNC(=O)[C@H]1NC(=O)[C@H]2NC(=O)[C@H](NC(=O)[C@@H]3NC(=O)[C@H](CC(N)=O)NC(=O)[C@H](NC(=O)[C@@H](CC(C)C)NC)[C@H](O)c4ccc(c(Cl)c4)Oc4cc3cc(c4O[C@@H]3O[C@H](CO)[C@@H](O)[C@H](O)[C@H]3O[C@H]3C[C@](C)(N)[C@H](O)[C@H](C)O3)Oc3ccc(cc3Cl)[C@H]2O)c2ccc(O)c(c2)-c2c(O)cc(O)cc21)NC(=O)[C@H](CCCCN)NC(=O)[C@H](CCCCN)NC(=O)[C@H](CCCCNC(=O)c1ccc(Oc2ccccc2)cc1)NC(=O)c1ccc(Oc2ccccc2)cc1 [Compound 35, POB2K-KK-Orn(Vancomycin)-NHMe]",<0.003,1.25,0.005,0.25
